Test results: the supplement of paper PMC10307832

Compound: OCc1c[nH]c2ccccc12 [Indole-3-carbinol]
Assay: relative viability (nuclei count vs DMSO), 5 days (fraction); higher = more cells survive
Procedure, shortened: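 A plate was accepted only when its control CV was below 25% and the cells had doubled at least once. Viability is defined from nuclear counts as treated wells divided by vehicle wells, with the median taken across plates. That median covers lung cancer cell lines grown in 1536-well plates, dosed by pinning at five √10-spaced library-drug concentrations, and counted in MetaXpress from 4× Hoechst images after 5 days.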

Cell Line | relative viability (0.253 µM) | relative viability (0.8 µM) | relative viability (2.53 µM) | relative viability (8 µM)
201T | 1.05 | 0.976 | 0.953 | 0.986
A549 | 0.951 | 1.03 | 1.02 | 0.91
A-427 | 0.96 | 0.95 | 0.982 | 0.97
ABC-1 | 0.816 | 0.995 | 1.12 | 0.955
BEN | 0.941 | 0.998 | 1.03 | 0.91
CAL-12T | 0.971 | 1.07 | 0.986 | 0.922
COR-L23 | 1.06 | 1.09 | 1.08 | 0.934
COR-L 105 | 0.964 | 0.845 | 0.958 | 0.844
ChaGo-K-1 | 0.965 | 0.99 | 0.893 | 1
EKVX | 1.04 | 0.96 | 0.999 | 0.943
EMC-BAC-2 | 0.957 | 0.949 | 1.05 | 0.912
EPLC-272H | 1.01 | 1.15 | 0.9 | 0.906
H3255 | 0.924 | 0.953 | 0.948 | 0.96
HARA | 0.96 | 0.894 | 1.06 | 0.889
HCC-15 | 1.14 | 0.999 | 0.995 | 0.973
HCC-44 | 0.983 | 0.972 | 0.954 | 0.96
HCC-78 | 1.05 | 0.83 | 0.991 | 1.06
HCC-366 | 1.09 | 0.905 | 0.999 | 1.03
HCC-827 | 1.07 | 1.03 | 1.06 | 0.987
HOP-62 | 1.02 | 0.933 | 1.03 | 0.939
LC-2-ad | 1.04 | 0.951 | 0.971 | 1.01
LCLC-97TM1 | 1.08 | 1.1 | 1.02 | 0.92
LCLC-103H | 0.889 | 1.01 | 0.932 | 0.915
LK-2 | 0.929 | 0.872 | 1.02 | 1.05
LOU-NH91 | 0.957 | 0.933 | 0.95 | 1.04

Cell Line | relative viability (0.253 µM) | relative viability (0.8 µM) | relative viability (2.53 µM) | relative viability (8 µM)
LU99A | 0.946 | 0.915 | 1.01 | 0.905
LXF-289 | 1.09 | 1.1 | 1 | 0.946
NCI-H23 | 1.04 | 1.08 | 1.05 | 0.925
NCI-H322M | 0.84 | 0.973 | 0.859 | 0.866
NCI-H358 | 0.947 | 0.916 | 0.917 | 0.94
NCI-H441 | 1.1 | 1.28 | 1.15 | 1.11
NCI-H460 | 1.04 | 0.975 | 0.978 | 0.957
NCI-H520 | 0.925 | 0.848 | 1.05 | 0.902
NCI-H522 | 1.01 | 0.855 | 0.931 | 0.976
NCI-H596 | 1.07 | 0.948 | 0.967 | 1
NCI-H647 | 1.06 | 0.703 | 1.1 | 0.948
NCI-H650 | 1 | 1.03 | 1.05 | 0.893
NCI-H661 | 0.957 | 0.904 | 1.03 | 0.988
NCI-H727 | 0.963 | 0.943 | 0.969 | 1.05
NCI-H838 | 1.01 | 0.935 | 0.98 | 0.935
NCI-H1355 | 1 | 1.11 | 0.97 | 0.961
NCI-H1395 | 0.945 | 0.92 | 0.929 | 0.881
NCI-H1437 | 1.01 | 1.01 | 0.992 | 0.945
NCI-H1650 | 1.03 | 0.794 | 0.943 | 0.882
NCI-H1651 | 0.994 | 0.97 | 1.05 | 0.945
NCI-H1666 | 0.998 | 1.04 | 0.961 | 0.998
NCI-H1703 | 0.962 | 0.908 | 1.05 | 0.904
NCI-H1734 | 0.997 | 0.866 | 0.973 | 0.932
NCI-H1755 | 1.05 | 0.997 | 0.993 | 0.929
NCI-H1792 | 0.88 | 0.833 | 0.811 | 0.984

Cell Line | relative viability (0.253 µM) | relative viability (0.8 µM) | relative viability (2.53 µM) | relative viability (8 µM)
NCI-H1793 | 0.943 | 0.841 | 1.04 | 0.906
NCI-H1915 | 1.01 | 1.01 | 0.956 | 0.976
NCI-H1944 | 0.971 | 0.793 | 0.955 | 0.962
NCI-H1975 | 1.04 | 0.93 | 1 | 0.897
NCI-H1993 | 1.06 | 1.07 | 0.872 | 0.919
NCI-H2009 | 1.05 | 1.03 | 1.01 | 0.951
NCI-H2023 | 0.952 | 0.963 | 0.984 | 0.935
NCI-H2085 | 1.01 | 1.03 | 1.03 | 0.949
NCI-H2087 | 1.18 | 1.11 | 1.01 | 0.896
NCI-H2126 | 0.986 | 1.01 | 0.997 | 0.957
NCI-H2170 | 0.999 | 1 | 0.929 | 0.955
NCI-H2228 | 1.09 | 0.84 | 1.19 | 0.999
NCI-H2342 | 1.08 | 0.907 | 1.01 | 1.02
NCI-H2347 | 1.08 | 1.07 | 1.09 | 0.961
NCI-H2405 | 1.06 | 1.01 | 1.06 | 1.03
NCI-H3122 | 1.07 | 0.986 | 1.02 | 0.983
PC-3 [JPC-3] | 1.05 | 1.04 | 1.05 | 0.953
PC-14 | 1.04 | 0.948 | 1 | 0.953
RERF-LC-KJ | 1.01 | 0.999 | 0.947 | 0.92
SK-LU-1 | 1.11 | 0.969 | 1.03 | 0.996
SK-MES-1 | 1.02 | 1.08 | 0.991 | 0.953
SW 1573 | 0.954 | 1.08 | 1.12 | 0.949
UMC-11 | 0.977 | 1.03 | 0.966 | 0.983
